Test results: patent US11098055B2, “Ester ACC inhibitors and uses thereof” (Gilead Apollo, LLC, priority 2015, dated 2021)
Values after ≈ are worked out from the molar mass of the structure shown.

Legend:
fACC2 = fACC2 (UniProt Q00955); assay: In vitro ACC2 inhibition assay (ADP-Glo), fungal ACC2; format: biochemical
Procedure: An exemplary procedure for the in vitro ACC inhibition assay, which can be used to determine the inhibitory action of compounds of the invention toward either human (hACC2) or fungal (fACC2) ACC2, follows. The ADP-Glo™ Kinase Assay kit from Promega was used. The ADP-Glo™ Kinase Assay is a luminescent ADP detection assay to measure enzymatic activity by quantifying the amount of ADP produced during an enzyme reaction. The assay is performed in two steps; first, after the enzyme reaction, an equal volume of ADP-Glo™ Reagent is added to terminate the reaction and deplete the remaining ATP. Second, the Kinase Detection Reagent is added to simultaneously convert ADP to ATP and allow the newly synthesized ATP to be measured using a luciferase/luciferin reaction. Luminescence can be correlated to ADP concentrations by using an ATP-to-ADP conversion curve. The detailed procedure is as follows. 50 μL of the compound being tested (600 μM in DMSO) was added to a 384-well dilution plate. The compound was diluted 1:3 in succession in DMSO for each row for 11 wells. 0.5 μL ACC2 working solution was added to 384-well white Optiplate assay plate. 0.5 μL diluted compound solution in each column from step 2 was added to assay plate, each row containing 2 replicates. For the last 2 rows, 0.5 μL negative control (DMSO) was added in one row and 0.5 μL positive control (compound I-97) in the other. The plates were incubated at room temperature for 15 minutes. 5 μL substrate working solution was added to each well to initiate reaction. Final ACC2 reaction concentrations consist of: 5 nM ACC2, 20 μM ATP, 20 μM acetyl-CoA, 12 mM NaHCO3, 0.01% Brij35, 2 mM DTT, 5% DMSO, test compound concentrations: 30 μM, 10 μM, 3.33 μM, 1.11 μM, 0.37 μM, 0.123 μM, 0.0411 μM, 0.0137 μM, 0.00457 μM, 0.00152 μM, and 0.00051 μM. Plates were incubated at room temperature for 60 minutes. 10 μL ADP glo reagent was added. Plates were incubated at room temperature for 40 minutes. 20 μL kinase detection reagent was added. Plates were incubated at room temperature for 40 minutes, and then read on a Perkin Elmer EnVision 2104 plate reader for luminescence as Relative Light Units (RLU).
Data for each concentration, as well as the positive and negative controls, were averaged, and the standard deviation calculated. Percent inhibition was calculated by the formula: 100×(average negative control−compound)/(average negative control−average positive control). The IC50 for each compound was calculated by fitting the data with a non-linear regression equation: Y=Bottom+(Top−Bottom)/(1+10^((Log IC50−X)*HillSlope)), where X is the log of compound concentration and Y is percent inhibition.

C. albicans ATCC 90028 = assay: Anti-Fungal (Candida) Activity Assay, broth microtiter MIC; format: cell-based; settings: ATCC90028, 48 h, 3 replicates, MIC read at 48 h
Procedure: (§1) Compounds of the present invention were evaluated in an Anti-Fungal Activity Assay. An exemplary procedure for the assay, which measures the susceptibility of various Candida species to anti-fungal compounds, follows. Compounds to be tested (including fluconazole and amphotericin B) were dissolved in DMSO to obtain a solution having a concentration of 1 mg/mL. These stock solutions were sterile filtered using a 0.22 um nylon syringe filter, then diluted in sterile water to achieve a final concentration of 128 μg/mL.
(§2) All species were grown from frozen stock by directly plating on to freshly prepared Sabouraud Dextrose agar (BD, Difco) and incubated overnight in ambient air at 35° C. for 24 h. A direct suspension was prepared in RPMI 1640+MOPS (Lonza, Biowhittaker) by taking individual colonies from the overnight cultures using sterile swabs soaked in sterile saline. The concentration of the suspension was determined using pre-determined standard curves. These suspensions were then diluted down to 5×10^3 CFU/mL to achieve a final concentration of 2.5×10^3 CFU/mL once added to the microtiter plate as per CLSI guidelines (M27-A3, Vol. 28 No. 14).
(§3) Broth microtiter MIC challenge plates were prepared following CLSI guidelines (M27-A3, Vol. 28 No. 14). The original CLSI guidelines focused on reading Candida MICs after 48 h of incubation. As reading after only 24 h offers a clear advantage of patient care, QC limits are being established for all drugs at 24 h. That being said there are no known interpretive breakpoints for amphotericin B at 24 h and the current fluconazole interpretive breakpoints are based on a 48 h reading. The MIC for the test compounds were recorded at 48 h. All MIC determinations were achieved by visually comparing the growth found in the antibiotic challenged wells to that of the growth control.

[1] = system: C. parapsilosis ATCC 22019; assay: as above; format: cell-based; settings: Lodderomyces parapsilosis, ATCC22019, 48 h, 3 replicates, MIC read at 48 h
Procedure: as §1, §2, §3

C. krusei ATCC 6258 = assay: as above; format: cell-based, Candida krusei; settings: Pichia kudriavzevii, ATCC6258, 48 h, 3 replicates, MIC read at 48 h
Procedure: as §1, §2, §3

Sequence of fACC2 (Q00955 whole entry): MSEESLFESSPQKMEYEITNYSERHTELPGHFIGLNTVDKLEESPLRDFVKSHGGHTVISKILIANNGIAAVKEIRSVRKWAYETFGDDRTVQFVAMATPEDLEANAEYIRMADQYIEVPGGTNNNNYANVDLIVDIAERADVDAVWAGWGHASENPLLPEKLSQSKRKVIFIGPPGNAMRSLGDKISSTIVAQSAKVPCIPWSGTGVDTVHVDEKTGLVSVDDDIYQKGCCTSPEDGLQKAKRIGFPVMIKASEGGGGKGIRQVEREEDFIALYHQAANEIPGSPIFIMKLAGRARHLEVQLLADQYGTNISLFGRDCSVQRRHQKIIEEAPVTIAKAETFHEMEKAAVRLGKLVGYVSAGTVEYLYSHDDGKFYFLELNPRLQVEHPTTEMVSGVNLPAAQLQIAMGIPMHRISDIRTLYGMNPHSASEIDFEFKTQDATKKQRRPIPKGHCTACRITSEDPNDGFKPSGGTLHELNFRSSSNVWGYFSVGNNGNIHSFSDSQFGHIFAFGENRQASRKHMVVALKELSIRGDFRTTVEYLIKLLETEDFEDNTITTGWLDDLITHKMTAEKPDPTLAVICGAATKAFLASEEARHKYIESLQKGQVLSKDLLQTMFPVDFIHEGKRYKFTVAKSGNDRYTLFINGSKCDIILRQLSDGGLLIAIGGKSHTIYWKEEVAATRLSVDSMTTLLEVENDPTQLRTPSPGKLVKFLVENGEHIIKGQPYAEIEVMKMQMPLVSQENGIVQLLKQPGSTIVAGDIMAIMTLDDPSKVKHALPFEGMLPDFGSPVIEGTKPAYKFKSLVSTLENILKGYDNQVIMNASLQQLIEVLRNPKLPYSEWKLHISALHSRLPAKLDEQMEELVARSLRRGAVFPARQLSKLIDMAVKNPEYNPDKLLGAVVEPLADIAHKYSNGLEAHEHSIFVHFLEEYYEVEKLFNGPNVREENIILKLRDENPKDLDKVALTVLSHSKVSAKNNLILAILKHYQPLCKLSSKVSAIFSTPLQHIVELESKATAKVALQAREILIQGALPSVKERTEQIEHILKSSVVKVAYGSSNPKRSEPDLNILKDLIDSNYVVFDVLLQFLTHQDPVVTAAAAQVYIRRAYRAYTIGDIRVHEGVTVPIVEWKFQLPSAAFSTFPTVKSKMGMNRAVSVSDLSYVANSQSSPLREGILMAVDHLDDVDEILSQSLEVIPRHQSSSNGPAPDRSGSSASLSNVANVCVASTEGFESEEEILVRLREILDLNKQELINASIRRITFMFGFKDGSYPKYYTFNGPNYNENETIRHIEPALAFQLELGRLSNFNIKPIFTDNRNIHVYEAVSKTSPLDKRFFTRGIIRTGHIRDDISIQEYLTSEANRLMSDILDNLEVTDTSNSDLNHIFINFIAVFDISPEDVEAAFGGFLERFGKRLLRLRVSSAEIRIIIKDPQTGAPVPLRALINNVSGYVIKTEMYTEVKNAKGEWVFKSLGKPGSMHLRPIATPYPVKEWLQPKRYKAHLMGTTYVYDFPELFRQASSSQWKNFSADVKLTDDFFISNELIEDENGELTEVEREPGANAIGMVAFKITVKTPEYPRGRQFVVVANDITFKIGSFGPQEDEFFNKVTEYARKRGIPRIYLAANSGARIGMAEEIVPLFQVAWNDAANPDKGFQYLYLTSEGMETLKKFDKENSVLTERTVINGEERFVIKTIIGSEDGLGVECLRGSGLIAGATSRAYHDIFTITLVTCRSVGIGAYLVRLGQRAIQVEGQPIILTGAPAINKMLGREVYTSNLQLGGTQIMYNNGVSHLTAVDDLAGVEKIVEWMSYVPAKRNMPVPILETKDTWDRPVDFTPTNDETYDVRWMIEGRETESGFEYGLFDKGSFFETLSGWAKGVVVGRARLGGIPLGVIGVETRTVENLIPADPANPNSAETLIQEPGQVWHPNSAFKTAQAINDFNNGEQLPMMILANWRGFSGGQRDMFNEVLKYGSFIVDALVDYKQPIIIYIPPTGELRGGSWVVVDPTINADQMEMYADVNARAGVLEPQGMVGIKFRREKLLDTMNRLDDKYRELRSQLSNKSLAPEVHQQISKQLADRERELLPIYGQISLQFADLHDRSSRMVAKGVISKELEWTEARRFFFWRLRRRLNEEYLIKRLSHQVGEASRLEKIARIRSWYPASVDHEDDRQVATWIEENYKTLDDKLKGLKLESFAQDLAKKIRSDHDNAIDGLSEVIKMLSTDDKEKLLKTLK

For CCOC(=O)c1sc2c(c1C)c(=O)n([C@H](C)C(=O)NC(C)C)c(=O)n2C[C@H](OCCC#N)c1cc(F)ccc1OC [Compound I-21, ethyl 1-((R)-2-(2-cyanoethoxy)-2-(5-fluoro-2-methoxyphenyl)ethyl)-3-((R)-1-(isopropylamino)-1-oxopropan-2-yl)-5-methyl-2,4-dioxo-1,2,3,4-tetrahydrothieno[2,3-d]pyrimidine-6-carboxylate], the IC50 (fACC2; Table 2b (additional results)) was 0.3 to 3 nM, the MIC (C. albicans ATCC 90028; Table 3b (additional results)) was 1.1 to 2 µg/mL (≈ 1.87 to 3.4 µM) and the MIC ([1]; Table 3b (additional results)) was 2.1 to 4 µg/mL (≈ 3.57 to 6.8 µM). It also gave an MIC (C. krusei ATCC 6258; Table 3b (additional results)) of 2.1 to 4 µg/mL (≈ 3.57 to 6.8 µM).
CCOC(=O)c1sc2c(c1C)c(=O)n(C(C)(C)C(=O)N1CCCCC1)c(=O)n2C[C@H](OC1CCOCC1)c1ccccc1OC [Compound I-2, ethyl (R)-1-(2-(2-methoxyphenyl)-2-((tetrahydro-2H-pyran-4-yl)oxy)ethyl)-5-methyl-3-(2-methyl-1-oxo-1-(piperidin-1-yl)propan-2-yl)-2,4-dioxo-1,2,3,4-tetrahydrothieno[2,3-d]pyrimidine-6-carboxylate] was tested, and the IC50 (fACC2; Table 2a) was 0.6 to 3 nM, the IC50 (fACC2; Table 2b (additional results)) was 0.3 to 3 nM and the MIC (C. albicans ATCC 90028; Table 3a) was 0.25 to 1 µg/mL (≈ 0.39 to 1.56 µM). The MIC (C. albicans ATCC 90028; Table 3b (additional results)) was 0.25 to 1 µg/mL (≈ 0.39 to 1.56 µM), the MIC ([1]; Table 3a) was 0.25 to 1 µg/mL (≈ 0.39 to 1.56 µM) and the MIC ([1]; Table 3b (additional results)) was 0.25 to 1 µg/mL (≈ 0.39 to 1.56 µM). The MIC (C. krusei ATCC 6258; Table 3a) was 0.25 to 1 µg/mL (≈ 0.39 to 1.56 µM) and the MIC (C. krusei ATCC 6258; Table 3b (additional results)) was 0.25 to 1 µg/mL (≈ 0.39 to 1.56 µM).
For CCOC(=O)c1sc2c(c1C)c(=O)n(C(C)(C)C(=O)NC(C)C)c(=O)n2C[C@H](OCCO)c1cc(F)ccc1OC [Compound I-18, (R)-ethyl 1-(2-(5-fluoro-2-methoxyphenyl)-2-(2-hydroxy-ethoxy)ethyl)-3-(1-(isopropylamino)-2-methyl-1-oxopropan-2-yl)-5-methyl-2,4-dioxo-1,2,3,4-tetrahydrothieno[2,3-d]pyrimidine-6-carboxylate], the IC50 (fACC2; Table 2a) was 0.6 to 3 nM, the MIC (C. albicans ATCC 90028; Table 3a) was 1.1 to 2 µg/mL (≈ 1.85 to 3.37 µM) and the MIC (C. albicans ATCC 90028; Table 3b (additional results)) was 1.1 to 2 µg/mL (≈ 1.85 to 3.37 µM). It also gave an MIC ([1]; Table 3a) of 2.1 to 4 µg/mL (≈ 3.54 to 6.74 µM), an MIC ([1]; Table 3b (additional results)) of 1.1 to 2 µg/mL (≈ 1.85 to 3.37 µM) and an MIC (C. krusei ATCC 6258; Table 3a) of 0.25 to 1 µg/mL (≈ 0.421 to 1.68 µM). For the same molecule, the MIC (C. krusei ATCC 6258; Table 3b (additional results)) was 0.25 to 1 µg/mL (≈ 0.421 to 1.68 µM).
With CCOC(=O)c1sc2c(c1C)c(=O)n(C(C)(C)C(=O)N1CCOCC1)c(=O)n2C[C@H](OC(C)C)c1ccccc1OC [Compound I-5, (R)-ethyl 1-(2-isopropoxy-2-(2-methoxyphenyl)ethyl)-5-methyl-3-(2-methyl-1-morpholino-1-oxopropan-2-yl)-2,4-dioxo-1,2,3,4-tetrahydrothieno[2,3-d]pyrimidine-6-carboxylate] the IC50 (fACC2; Table 2a) was 3 to 10 nM, the IC50 (fACC2; Table 2b (additional results)) was 3 to 10 nM and the MIC (C. albicans ATCC 90028; Table 3a) was greater than 4.1 µg/mL. It also gave an MIC (C. albicans ATCC 90028; Table 3b (additional results)) greater than 4.1 µg/mL, an MIC ([1]; Table 3a) greater than 4.1 µg/mL and an MIC ([1]; Table 3b (additional results)) of 2.1 to 4 µg/mL (≈ 3.49 to 6.65 µM). For the same molecule, the MIC (C. krusei ATCC 6258; Table 3a) was greater than 4.1 µg/mL and the MIC (C. krusei ATCC 6258; Table 3b (additional results)) was 2.1 to 4 µg/mL (≈ 3.49 to 6.65 µM).
For CCOC(=O)c1sc2c(c1C)c(=O)n([C@H](C)C(=O)N1CCCC1)c(=O)n2C[C@H](OCCC#N)c1cc(F)ccc1OC [Compound I-24, ethyl 1-((R)-2-(2-cyanoethoxy)-2-(5-fluoro-2-methoxy-phenyl)ethyl)-5-methyl-2,4-dioxo-3-((R)-1-oxo-1-(pyrrolidin-1-yl)propan-2-yl)-1,2,3,4-tetrahydrothieno[2,3-d]pyrimidine-6-carboxylate], the IC50 (fACC2; Table 2b (additional results)) was 0.3 to 3 nM, the MIC (C. albicans ATCC 90028; Table 3b (additional results)) was 2.1 to 4 µg/mL (≈ 3.5 to 6.66 µM) and the MIC ([1]; Table 3b (additional results)) was 0.25 to 1 µg/mL (≈ 0.416 to 1.66 µM). It also gave an MIC (C. krusei ATCC 6258; Table 3b (additional results)) of 2.1 to 4 µg/mL (≈ 3.5 to 6.66 µM).
CCOC(=O)c1sc2c(c1C)c(=O)n(C(C)(C)C(=O)N1CCCC1)c(=O)n2C[C@H](OCCC#N)c1cc(F)ccc1OC [Compound I-16, (R)-ethyl 1-(2-(2-cyanoethoxy)-2-(5-fluoro-2-methoxy-phenyl)ethyl)-5-methyl-3-(2-methyl-1-oxo-1-(pyrrolidin-1-yl)propan-2-yl)-2,4-dioxo-1,2,3,4-tetrahydrothieno[2,3-d]pyrimidine-6-carboxylate] showed an IC50 (fACC2; Table 2a) of 0.6 to 3 nM, an IC50 (fACC2; Table 2b (additional results)) of 0.3 to 3 nM and an MIC (C. albicans ATCC 90028; Table 3a) greater than 4.1 µg/mL. It also gave an MIC (C. albicans ATCC 90028; Table 3b (additional results)) of 2.1 to 4 µg/mL (≈ 3.42 to 6.51 µM), an MIC ([1]; Table 3a) greater than 4.1 µg/mL and an MIC ([1]; Table 3b (additional results)) of 0.25 to 1 µg/mL (≈ 0.407 to 1.63 µM). It also gave an MIC (C. krusei ATCC 6258; Table 3a) greater than 4.1 µg/mL and an MIC (C. krusei ATCC 6258; Table 3b (additional results)) of 2.1 to 4 µg/mL (≈ 3.42 to 6.51 µM).
